Consider three compounds from patent publication US6403123B1, “Method for topical treatment of anthralin-responsive dermatological disorders” (priority 2000, dated 2002).

Structures are written as SMILES.

Holding throughout (format): in vivo, human
The subject of series [1] is psoriasis. As to the kind of experiment: Earlier or concurrent treatment of the psoriasis subjects with other drugs (case histories). The following applies: person.
Series [2] has as its system psoriasis. As to the kind of experiment: Topical treatment of psoriasis patients by the method: anthralin formulation, then wax formulation, then talc powder. The following applies: person.
Text: In accordance with the present invention, the anthralin formulation is first topically applied to the involved skin area, or skin lesions, such as psoriatic plaques or eczema, of a patient in need of such treatment. […] The anthralin formulation may be applied by any means which provides a relatively uniform layer of anthralin formulation on the involved area. Suitable means of application include spraying, roll-on, and application using a brush, saturated cotton gauze, pad, sponge-tipped applicator, and the like. As the anthralin formulation penetrates into the lesions or evaporates, any unabsorbed anthralin formulation on the lesion surface can be wiped off with a tissue, paper towel, cloth or the like. Thereafter, a wax formulation is applied to the lesion to cover the anthralin formulation-treated area. The wax formulation may be applied using any application method that allows for applying a relatively uniform layer of the wax formulation. Such application methods include, but are not limited to, spraying, roll-on, and application by brush, cotton gauze, pad, sponge-tipped applicator, and the like. As the vehicle(s) of the wax formulation evaporate, a thin film of wax will be formed to cover the lesion surface of the involved area. […] Finally, a powder, such as talc, may then be optionally applied over the wax film in order to eliminate any remaining anthralin thereby further ensuring that staining of clothing or other objects is avoided. […] The powder may be applied by dusting using a puff or pad, sprinkling, spreading and the like. The method was typically carried out as follows. A liquid anthralin formulation as formulated in Example 1(A) was topically applied to skin lesions once to twice daily by the patient using a saturated cotton pad. As the anthralin penetrated into the lesions and the solvents evaporated, a tissue or paper towel was used to wipe off excess materials from the surface of the lesions. The wax formulation as formulated in Example 2(B) was topically applied to the lesions. […]
Series [3] can be described thus: Staining of skin and clothing and skin irritation during the topical anthralin method. An excerpt:
As the anthralin formulation penetrates into the lesions or evaporates, any unabsorbed anthralin formulation on the lesion surface can be wiped off with a tissue, paper towel, cloth or the like. Thereafter, a wax formulation is applied to the lesion to cover the anthralin formulation-treated area. The wax formulation may be applied using any application method that allows for applying a relatively uniform layer of the wax formulation. Such application methods include, but are not limited to, spraying, roll-on, and application by brush, cotton gauze, pad, sponge-tipped applicator, and the like. As the vehicle(s) of the wax formulation evaporate, a thin film of wax will be formed to cover the lesion surface of the involved area. There are two advantages to the presence of the wax film: (a) the thin wax film will act as an occlusive backing to drive the penetration of anthralin deeper into the lesions; and (b) the wax film will prevent any trace amounts of anthralin from contacting clothing or other objects.
Finally, a powder, such as talc, may then be optionally applied over the wax film in order to eliminate any remaining anthralin thereby further ensuring that staining of clothing or other objects is avoided. […]

Regarding `CN(Cc1cnc2nc(N)nc(N)c2n1)c1ccc(C(=O)N[C@@H](CCC(=O)O)C(=O)O)cc1` [methotrexate], the improvement of lesions result in the series with psoriasis [1] (Example 5, generalized plaque psoriasis, intramuscular injections every one to four weeks) was “approximately 50%”.
Turning to `O=C1c2c(O)cccc2Cc2cccc(O)c21` [anthralin, 1,8,9,-anthracenetriol], the “improvement of the psoriasis” value in the series with psoriasis [2] (Example 6, anthralin 0.2% increased to 1% by weight, once daily, maintained over one year) is listed as “approximately 90%”. For the same compound, the “skin free of psoriasis” value in the series with psoriasis [2] (Example 7, anthralin 0.3% increased to 0.6% by weight, once daily, after four months) is on record as “approximately 90%”. In addition, the “improvement of psoriatic lesions” value in the series on psoriasis [2] (Example 8, small plaque psoriasis, 3% anthralin formulation once daily, after four months) is “approximately 75%”. Also, in series [3] (Example 10, 0.25% anthralin, wax formulation Example 2(B), fine talc, twice a day for four weeks), the staining of clothes result is “no staining of their clothes”. The “skin irritation and staining to the skin and clothing” value in series [3] (typical case, about 0.1% to about 0.2% by weight anthralin, once or twice daily on chronic psoriatic plaques) is “without skin irritation and staining to the skin and clothing”.
In the case of `C=C1/C(=C\C=C2/CCC[C@]3(C)[C@@H]([C@H](C)/C=C/[C@@H](O)C4CC4)CC[C@@H]23)C[C@@H](O)C[C@@H]1O` [calcipotriene], the “response of plaque psoriasis” value with psoriasis [1] (Example 6, plaque psoriasis for four years, topical treatment) is given as “did not improve well”. In addition, the “response of generalized small plaque psoriasis” value with psoriasis [1] (Example 7, psoriasis for seventeen years, topical treatment) was “did not respond”.
